Data as given in patent US4461899A, “Fluorenecarboxylic acid derivatives” (Diamond Shamrock Chemicals Company, priority 1982, dated 1984).
Entries after “also recorded” stand apart in the source; their conditions may differ. Counter-ions that a name gives are not always drawn.

Assays:
Format in all cases: in vivo
[1] = tested on: field grown tomato plants; experiment: Fruit set and phytotoxicity in field grown tomato plants; details: for Increase Over Control (%) of fruit set: 24 days; for Fruit Set Per Plant (After 24 days) / Phytotoxicity: 24 days after treatment; for Increase (%) of fruit set: initial to 24 days
Excerpt: To determine fruit set effects by compounds of this invention, field grown tomato plants were foliage sprayed with the cis-2,5-dimethylpyrrolidine salt of […], 9-cis-2,5-dimethyl-1-pyrrolidinyl-2-chlorofluorene-9-carboxylic acid, methyl ester, and the commercial plant growth regulant, MAINTAIN CF-125 (methyl-2-chloro-9hydroxyfluorene-9-carboxylate, manufactured by U.S. Borax and Chemical Corp.). Rates of application employed were 5, 25, and 100 ppm when the tomato plants were in the late blooming to early fruit setting stage. Untreated plants were included in the test as controls. Five plants were sprayed for each chemical treatment. The number of fruit set and the degree of phytotoxicity to the plants were determined 24 days after treatment.

[2] = tested on: field grown tomato plants; experiment: Overall yield and fruit size of field grown tomatoes; details: for tomato yield / fruit size, in words: 10, 50 and 500 ppm, Example 1 decrease at 500 ppm; for Fruit Size, Green (% of Control): control 104.0 g; for Fruit Size, Red (% of Control): control 105.5 g
Excerpt: This example illustrates the effects of compounds of this invention on overall yield of tomatoes. For the test, field grown tomato plants, when in the early flowering stage, were foliage sprayed with the particular compounds of the invention designated below, and with the commercial product CF-125 (Maintain), at rates of 10, 50 and 500 ppm. These rates correspond to applications of 3.69 g, 18.54 g and 185.4 g/hectare, respectively. Each treatment consisted of five plants; the experimental design was a complete randomized block with three replications. A block of untreated plants was included as the control. The fruit was harvested by hand and separated into […] ripe fruit and marketable green fruit.

[3] = tested on: "Walter" variety tomato plants; experiment: Yield of "Walter" variety tomatoes, weekly harvest of mature red fruit; details: for Total Fruit / Total Fruit, % of Control: weeks 1-6
Excerpt: Compounds of this invention were further tested as tomato yield enhancers as follows:
"Walter" variety tomato plants, in the early flowering stage, were foliage sprayed at a rate of 68.8 liters/hectare with compounds of this invention, and with the commercial product, CF-125. Each plot consisted of 20 plants; the experimental design was a completed randomized block with three replications. A plot of untreated plants was included as a control. Marketable, mature red tomatoes were harvested weekly, beginning 5 weeks after treatment.

soybean plants = experiment: Soybean yield after foliar spray at early flowering stage; details: for Yield Improvement %: vs control
Excerpt: Two 50 cm rows of soybean plants at the early flowering stage were sprayed with 100 ppm or 500 ppm of the cis-2,5-dimethylpyrrolidine salt of 9-fluorenecarboxylic acid, using a spray volume of about 375 liters/hectare (40 gallons/acre). For comparison, other rows were sprayed with like concentrations of two known compounds as designated below. Also 2 untreated rows were maintained to serve as a control: each of the plots was weeded by hand as needed. At maturity, each plot was harvested and the yield was determined.

COC(=O)C1(N2[C@H](C)CC[C@@H]2C)c2ccccc2-c2ccc(Cl)cc21 (stereo partly drawn) [Example 8, 9-cis-2,5-dimethyl-1-pyrrolidinyl-2-chlorofluorene-9-carboxylic acid, methyl ester] was tested, and the “Increase Over Control (%) of fruit set” value ([1]; 5 ppm) was 36%, the “Fruit Set Per Plant (After 24 days)” value ([1]; 5 ppm) was 19.6 and the Phytotoxicity ([1]; 5 ppm) was 0. The “Fruit Set Per Plant (Initial)” value ([1]; 5 ppm) was 9.4, the “Increase (%) of fruit set” value ([1]; 5 ppm) was 109% and the “Increase Over Control (%) of fruit set” value ([1]; 25 ppm) was 9%. The “Fruit Set Per Plant (After 24 days)” value ([1]; 25 ppm) was 18.6, the Phytotoxicity ([1]; 25 ppm) was 0 and the “Fruit Set Per Plant (Initial)” value ([1]; 25 ppm) was 10.2. The “Increase (%) of fruit set” value ([1]; 25 ppm) was 82%, the “Increase Over Control (%) of fruit set” value ([1]; 100 ppm) was -23% and the “Fruit Set Per Plant (After 24 days)” value ([1]; 100 ppm) was 15.6. The “Fruit Set Per Plant (Initial)” value ([1]; 100 ppm) was 10.4, the “Increase (%) of fruit set” value ([1]; 100 ppm) was 50% and the “tomato yield / fruit size, in words” value [2] was “became inhibitory above the 50 ppm rate”. The “Fruit Yield, Green (% of Control)” value ([2]; 10 ppm) was 64 % of Control, the “Fruit Yield, Red (% of Control)” value ([2]; 10 ppm) was 161 % of Control and the “Total Yield (% of Control)” value ([2]; 10 ppm) was 97 % of Control. The “yield of red fruit over the control yield” value ([2]; 10 ppm) was 61%, the “Fruit Size, Green (% of Control)” value ([2]; 10 ppm) was 93 % of Control and the “Fruit Size, Red (% of Control)” value ([2]; 10 ppm) was 82 % of Control. For the same compound, the “Fruit Yield, Green (% of Control)” value ([2]; 50 ppm) was 26 % of Control, the “Fruit Yield, Red (% of Control)” value ([2]; 50 ppm) was 93 % of Control and the “Total Yield (% of Control)” value ([2]; 50 ppm) was 49 % of Control. For the same compound, the “Fruit Size, Green (% of Control)” value ([2]; 50 ppm) was 46 % of Control, the “Fruit Size, Red (% of Control)” value ([2]; 50 ppm) was 95 % of Control and the “Fruit Yield, Green (% of Control)” value ([2]; 500 ppm) was 0 % of Control. The “Fruit Yield, Red (% of Control)” value ([2]; 500 ppm) was 76 % of Control, the “Total Yield (% of Control)” value ([2]; 500 ppm) was 26 % of Control and the “Fruit Size, Green (% of Control)” value ([2]; 500 ppm) was 0 % of Control. The “Fruit Size, Red (% of Control)” value ([2]; 500 ppm) was 67 % of Control, the “increased tomato yields above the yield of control plots” value ([3]; 5-10 ppm) was 39-80% and the “Fruit Yield (kg/plot)” value ([3]; 5 ppm) was 32.8 kg/plot. For the same compound, the “Total Yield Wt. % of Control” value ([3]; 5 ppm) was 139.0 % of Control, the “Fruit harvested, Harvest Time (Week) 1” value ([3]; 5 ppm) was 11 and the “Fruit harvested, Harvest Time (Week) 2” value ([3]; 5 ppm) was 109. The “Fruit harvested, Harvest Time (Week) 3” value ([3]; 5 ppm) was 103, the “Fruit harvested, Harvest Time (Week) 4” value ([3]; 5 ppm) was 168 and the “Fruit harvested, Harvest Time (Week) 5” value ([3]; 5 ppm) was 208. The “Fruit harvested, Harvest Time (Week) 6” value ([3]; 5 ppm) was 286, the “Total Fruit” value ([3]; 5 ppm) was 885 and the “Total Fruit, % of Control” value ([3]; 5 ppm) was 154 % of Control. For the same compound, the “Fruit Yield (kg/plot)” value ([3]; 10 ppm) was 42.6 kg/plot, the “Total Yield Wt. % of Control” value ([3]; 10 ppm) was 180.5 % of Control and the “Fruit harvested, Harvest Time (Week) 1” value ([3]; 10 ppm) was 13. For the same compound, the “Fruit harvested, Harvest Time (Week) 2” value ([3]; 10 ppm) was 123, the “Fruit harvested, Harvest Time (Week) 3” value ([3]; 10 ppm) was 126 and the “Fruit harvested, Harvest Time (Week) 4” value ([3]; 10 ppm) was 240. The “Fruit harvested, Harvest Time (Week) 5” value ([3]; 10 ppm) was 306, the “Fruit harvested, Harvest Time (Week) 6” value ([3]; 10 ppm) was 296 and the “Total Fruit” value ([3]; 10 ppm) was 1104. For the same compound, the “Total Fruit, % of Control” value ([3]; 10 ppm) was 192 % of Control, the “Fruit Yield (kg/plot)” value ([3]; 50 ppm) was 15.4 kg/plot and the “Total Yield Wt. % of Control” value ([3]; 50 ppm) was 65.3 % of Control. For the same compound, the “Fruit harvested, Harvest Time (Week) 1” value ([3]; 50 ppm) was 34, the “Fruit harvested, Harvest Time (Week) 2” value ([3]; 50 ppm) was 150 and the “Fruit harvested, Harvest Time (Week) 3” value ([3]; 50 ppm) was 81. For the same compound, the “Fruit harvested, Harvest Time (Week) 4” value ([3]; 50 ppm) was 25, the “Fruit harvested, Harvest Time (Week) 5” value ([3]; 50 ppm) was 9 and the “Fruit harvested, Harvest Time (Week) 6” value ([3]; 50 ppm) was 100. The “Total Fruit” value ([3]; 50 ppm) was 399 and the “Total Fruit, % of Control” value ([3]; 50 ppm) was 69 % of Control.

With O=C(O)c1cccc2c1Cc1ccccc1-2 [Example 3, 2,6-Dimethyl piperidine salt of fluorene-1-carboxylic acid] the “tomato yield / fruit size, in words” value [2] was “increased the yield of red fruit at all rates of application; also recorded: increasing the size of the fruit”, the “Fruit Yield, Green (% of Control)” value ([2]; 10 ppm) was 45 % of Control and the “Fruit Yield, Red (% of Control)” value ([2]; 10 ppm) was 119 % of Control. For the same compound, the “Total Yield (% of Control)” value ([2]; 10 ppm) was 70 % of Control, the “Fruit Size, Green (% of Control)” value ([2]; 10 ppm) was 137 % of Control and the “Fruit Size, Red (% of Control)” value ([2]; 10 ppm) was 161 % of Control. For the same compound, the “Fruit Yield, Green (% of Control)” value ([2]; 50 ppm) was 69 % of Control, the “Fruit Yield, Red (% of Control)” value ([2]; 50 ppm) was 122 % of Control and the “Total Yield (% of Control)” value ([2]; 50 ppm) was 128 % of Control. The “Fruit Size, Green (% of Control)” value ([2]; 50 ppm) was 101 % of Control, the “Fruit Size, Red (% of Control)” value ([2]; 50 ppm) was 165 % of Control and the “Fruit Yield, Green (% of Control)” value ([2]; 500 ppm) was 86 % of Control. For the same compound, the “Fruit Yield, Red (% of Control)” value ([2]; 500 ppm) was 127 % of Control, the “Total Yield (% of Control)” value ([2]; 500 ppm) was 59 % of Control and the “Fruit Size, Green (% of Control)” value ([2]; 500 ppm) was 83 % of Control. For the same compound, the “Fruit Size, Red (% of Control)” value ([2]; 500 ppm) was 127 % of Control.

C[C@@H]1CC[C@H](C)N1.O=C(O)C1c2ccccc2-c2ccccc21 [Example 15, Cis-2,5-dimethylpyrrolidine salt of 9-fluorenecarboxylic acid] was tested, and the “soybean yield, in words” value (soybean plants; particularly at 500 ppm, over untreated control and fluorenecarboxylic acids) was “significantly enhances soybean yield over the untreated control plot and over plots treated with known morphactins”.

O=C(O)c1cccc2c1Cc1ccccc1-2 [1-fluorenecarboxylic acid] was tested, and the “Yield (Kilograms) × 10^2” value (soybean plants; 100 ppm) was 17.16 Kilograms × 10^2, the “Yield Improvement %” value (soybean plants; 100 ppm) was -2.7% and the “Yield (Kilograms) × 10^2” value (soybean plants; 500 ppm) was 17.34 Kilograms × 10^2. The “Yield Improvement %” value (soybean plants; 500 ppm) was -1.5%.

For O=C(O)C1c2ccccc2-c2ccccc21 [9-fluorenecarboxylic acid], the “Yield (Kilograms) × 10^2” value (soybean plants; 100 ppm) was 18.93 Kilograms × 10^2, the “Yield Improvement %” value (soybean plants; 100 ppm) was 7.3% and the “Yield (Kilograms) × 10^2” value (soybean plants; 500 ppm) was 19.02 Kilograms × 10^2. The “Yield Improvement %” value (soybean plants; 500 ppm) was 7.5%.
